Results published in US9585891B2 (MERCK PATENT GMBH, priority 2012, dated 2017).

What follows are compounds tested against T1, Human recombinant Vanin-1 (VNN1) (Homo sapiens, UniProt O95497) (assay: Vanin-1 enzymatic assay (fluorescence intensity, Pantothenate-AMC substrate)). Conditions: purified recombinant human Vanin-1 0.5 nM; 30 min preincubation at 30° C.; Pantothenate-AMC 30 μM, 60 min.
T1 construct: purchased Sino Biological Inc. 11662-H08H
T1 sequence (O95497 22-491): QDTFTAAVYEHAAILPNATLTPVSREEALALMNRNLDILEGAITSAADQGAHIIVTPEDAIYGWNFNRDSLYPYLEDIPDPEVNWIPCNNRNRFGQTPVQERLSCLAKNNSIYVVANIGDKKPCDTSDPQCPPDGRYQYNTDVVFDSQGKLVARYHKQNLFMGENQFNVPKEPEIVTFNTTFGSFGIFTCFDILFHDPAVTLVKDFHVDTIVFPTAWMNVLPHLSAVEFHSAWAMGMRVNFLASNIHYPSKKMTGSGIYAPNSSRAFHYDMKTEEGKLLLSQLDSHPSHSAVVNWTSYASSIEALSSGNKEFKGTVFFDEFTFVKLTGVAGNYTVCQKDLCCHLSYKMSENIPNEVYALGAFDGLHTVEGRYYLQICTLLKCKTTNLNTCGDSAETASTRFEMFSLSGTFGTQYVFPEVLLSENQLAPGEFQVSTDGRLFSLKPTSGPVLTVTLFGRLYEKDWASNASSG
Format: biochemical
Procedure: Human recombinant Vanin-1 (VNN1) was purchased from Sino Biological Inc. (Catalog Number: 11662-H08H).
Measurement of VNN1 inhibition is performed in 384-well format based on fluorescence intensity assay. Purified recombinant human Vanin-1 (0.5 nM) and threefold serial diluted compounds in 3% DMSO (range of concentrations from 30 μM to 1.524 nM) or controls (3.0% DMSO) are incubated for 30 minutes at 30° C. with gentle agitation in assay buffer containing 100 mM potassium Phosphate Buffer (KPi), pH 7.5, 0.001% Bovine Serum Albumin (BSA), 0.5 mM dithiothreitol (DTT) and 0.0025% Brij-35. The reaction is initiated by the addition of the fluorogenic substrate, Pantothenate-AMC, at a concentration of 30 μM. After 60 minutes of incubation at 30° C. with gentle agitation, fluorescence intensity is measured at λex=350 nm and λem=450 nm with a fluorescence reader (BMG PHERAstar reader or equivalent).

Row | Compound | IC50
1 | CC(C)(CO)[C@@H](O)C(=O)NCCC(=O)C(=O)NCC1CCN(S(=O)(=O)c2cccc(F)c2)CC1 [Example 51, (R)—N-(3-{[1-(3-Fluoro-benzenesulfonyl)-piperidin-4-ylmethyl]-carbamoyl}-3-oxo-propyl)-2,4-dihydroxy-3,3-dimethyl-butyramide] | 20 nM
2 | CC(C)(CO)[C@@H](O)C(=O)NCCN(CCOc1ccccc1)C(=O)CCl [Example 63, (R)—N-{2-[(2-Chloro-acetyl)-(2-phenoxy-ethyl)-amino]-ethyl}-2,4-dihydroxy-3,3-dimethyl-butyramide] | 3550 nM
3 | CC(C)(CO)[C@@H](O)C(=O)NCCC(=O)C(=O)NCc1cccc(S(=O)(=O)N2CCCCC2)c1 [Example 36, (R)-2,4-Dihydroxy-3,3-dimethyl-N-{3-oxo-3-[3-(piperidine-1-sulfonyl)-benzylcarbamoyl}-propyl)-butyramide] | 170 nM
4 | COCCOc1ccc(CNC(=O)C(=O)CCNC(=O)[C@H](O)C(C)(C)CO)cc1 [Example 50, (R)-2,4-Dihydroxy-N-(3-[4-(2-methoxy-ethoxy)-benzylcarbamoyl]-3-oxo-propyl)-3,3-dimethyl-butyramide] | 30 nM
5 | CC(C)(CO)[C@@H](O)C(=O)NCCN(CCOc1ccc(S(C)(=O)=O)cc1)C(=O)CCl [Example 64, (R)—N-(2-{(2-Chloro-acetyl)-[2-(4-methanesulfonyl-phenoxy)-ethyl]-amino}-ethyl)-2,4-dihydroxy-3,3-dimethyl-butyramide] | 3440 nM
6 | COC(=O)CNC(=O)C(=O)CCNC(=O)[C@H](O)C(C)(C)CO [Example 25, [4-((R)-2,4-Dihydroxy-3,3-dimethyl-butyrylamino)-2-oxo-butyrylamino]-acetic acid methyl ester] | 2320 nM
7 | CC(NC(=O)C(=O)CCNC(=O)[C@H](O)C(C)(C)CO)c1ccccc1 (stereo partly drawn) [Example 20] | 3030 nM
8 | CC(C)(CO)[C@@H](O)C(=O)NCCC(=O)C(=O)NC1CCCCC1 [Example 18, (R)—N-(3-Cyclohexylcarbamoyl-3-oxo-propyl)-2,4-dihydroxy-3,3-dimethyl butyramide] | 3350 nM
9 | COC(=O)c1ccc(-c2ccc(CNC(=O)C(=O)CCNC(=O)[C@H](O)C(C)(C)CO)cc2)cc1 [Example 56, 4′-{[4-((R)-2,4-Dihydroxy-3,3-dimethyl-butyrylamino)-2-oxo-butyrylamino]-methyl}-biphenyl-4-carboxylic acid methyl ester] | 10 nM
10 | CC(C)(CO)[C@@H](O)C(=O)NCCC(=O)C(=O)NCc1ccc(N2CCOCC2)cc1 [Example 41, (R)-2,4-Dihydroxy-3,3-dimethyl-N-[3-(4-morpholin-4-yl-benzylcarbamoyl)-3-oxo-propyl]-butyramide] | 10 nM
11 | CC(C)(CO)[C@@H](O)C(=O)NCCC(=O)C(=O)Nc1ccccc1 [Example 16, (R)-2,4-Dihydroxy-3,3-dimethyl-N-(3-oxo-3-phenylcarbamoyl-propyl)-butyramide] | 8320 nM
12 | CC(=O)N1CCC(CNC(=O)C(=O)CCNC(=O)[C@H](O)C(C)(C)CO)CC1 [Example 48, (R)—N-(3-[(1-Acetyl-piperidin-4-ylmethyl)-carbamoyl]-3-oxo-propyl)-2,4-dihydroxy-3,3-dimethyl-butyramide] | 110 nM
13 | COC(=O)c1ccc(OCCN(CCNC(=O)[C@H](O)C(C)(C)CO)C(=O)CCl)cc1 [Example 65, 4-(2-{(2-Chloro-acetyl)-[2-((R)-2,4-dihydroxy-3,3-dimethyl-butyrylamino)-ethyl]-amino}-ethoxy)-benzoic acid methyl ester] | 3990 nM
14 | CC(C)(CO)[C@@H](O)C(=O)NCCC(=O)C(=O)NCc1ccc(-c2ccc(C(=O)O)cc2)cc1 [Example 55, 4′-{[4-((R)-2,4-Dihydroxy-3,3-dimethyl-butyrylamino)-2-oxo-butyrylamino]-methyl}-biphenyl-4-carboxylic acid] | < 10 nM
15 | CC(C)(CO)[C@@H](O)C(=O)NCCC(=O)C(=O)NCC1CCCO1 (stereo partly drawn) [Example 29, (R)-2,4-Dihydroxy-3,3-dimethyl-N-(3-oxo-3-[(tetrahydro-furan-2-ylmethyl)-carbamoyl]-propyl)-butyramide] | 700 nM
16 | CC(C)(CO)[C@@H](O)C(=O)NCCC(=O)C(=O)N1CCOCC1 [Example 49, (R)-2,4-Dihydroxy-3,3-dimethyl-N-(4-morpholin-4-yl-3,4-dioxo-butyl)-butyramide] | 23000 nM
17 | CC(C)(CO)[C@@H](O)C(=O)NCCC(=O)C(=O)NCC1CCN(S(=O)(=O)c2ccccc2)CC1 [Example 34, (R)—N-(3-[(1-Benzenesulfonyl-piperidin-4-ylmethyl)-carbamoyl]-3-oxo-propyl)-2,4-dihydroxy-3,3-dimethyl-butyramide] | 20 nM

Row | Compound | IC50
18 | CCOC(=O)c1ccc(CNC(=O)C(=O)CCNC(=O)[C@H](O)C(C)(C)CO)cc1 [Example 45, 4-{[4-((R)-2,4-Dihydroxy-3,3-dimethyl-butyrylamino)-2-oxo-butyrylamino]-methyl}-benzoic acid ethyl ester] | 20 nM
19 | CC(C)(CO)[C@@H](O)C(=O)NCCC(=O)C(=O)NCCc1ccc(S(C)(=O)=O)cc1 [Example 30, (R)-2,4-Dihydroxy-N-{3-[2-(4-methanesulfonyl-phenyl)-ethylcarbamoyl]-3-oxo-propyl}-3,3-dimethyl-butyramide] | 30 nM
20 | CC(C)(CO)[C@@H](O)C(=O)NCCC(=O)C(=O)NCC1CCN(S(=O)(=O)c2ccc(N3CCCC3=O)cc2)CC1 [Example 46, (R)-2,4-Dihydroxy-3,3-dimethyl-N-[3-oxo-3-({1-[4-(2-oxo-pyrrolidin-1-yl)-benzenesulfonyl]-piperidin-4-ylmethyl}-carbamoyl)-propyl]-butyramide] | < 10 nM
21 | CC(C)(CO)[C@@H](O)C(=O)NCCC(=O)C(=O)NCc1ccc(-c2ccc(S(C)(=O)=O)cc2)cc1 [Example 53, (R)-2,4-Dihydroxy-N-{3-[(4′-methanesulfonyl-biphenyl-4-ylmethyl)-carbamoyl]-3-oxo-propyl}-3,3-dimethyl-butyramide] | 10 nM
22 | CC(C)(CO)[C@@H](O)C(=O)NCCC(=O)C(=O)NCc1ccc(OCCN2CCOCC2)cc1 [Example 44, (R)-2,4-Dihydroxy-3,3-dimethyl-N-(3-[4-(2-morpholin-4-yl-ethoxy)-benzylcarbamoyl]-3-oxo-propyl)-butyramide] | 50 nM
23 | CC(C)(CO)[C@@H](O)C(=O)NCCC(=O)C(=O)NC(c1ccccc1)c1ccccc1 [Example 21, (R)—N-[3-(Benzhythyl-carbamoyl)-3-oxo-propyl]-2,4-dihydroxy-3,3-dimethyl-butyramide] | 11500 nM
24 | CC(C)(CO)[C@@H](O)C(=O)NCCN(CCOc1ccc(Br)cc1)C(=O)CCl [Example 66] | 2870 nM
25 | CC(C)(CO)[C@@H](O)C(=O)NCCC(=O)C(=O)NCc1ccc(C(=O)O)cc1 [Example 54, 4-{[4-((R)-2,4-Dihydroxy-3,3-dimethyl-butrylamino)-2-oxo-butyrylamino]-methyl}-benzoic acid] | 90 nM
26 | CC(C)(CO)[C@@H](O)C(=O)NCCC(=O)C(=O)NCC1CCN(S(C)(=O)=O)CC1 [Example 47, (R)-2,4-Dihydroxy-N-(3-[(1-methanesulfonyl-piperidin-4-ylmethyl)-carbamoyl]-3-oxo-propyl)-3,3-dimethyl-butyramide] | 20 nM
27 | CC(=O)CCNC(=O)[C@H](O)C(C)(C)CO [Example 1, (R)-2,4-Dihydroxy-3,3-dimethyl-N-(3-oxo-butyl)-butyramide] | 5370 nM
28 | CC(C)(CO)[C@@H](O)C(=O)NCCC(=O)C(=O)NCCc1ccccc1 [Example 12, (R)-2,4-Dihydroxy-3,3-dimethyl-N-(3-oxo-3-phenethylcarbamoyl-propyl)-butyramide] | 90 nM
29 | CC(C)(CO)[C@@H](O)C(=O)NCCC(=O)C(=O)NCc1ccc(Oc2ccncc2)cc1 [Example 37, (R)-2,4-Dihydroxy-3,3-dimethyl-N-{3-oxo-3-[4-(pyridin-4-yloxy)-benzylcarbamoyl]-propyl}-butyramide] | 10 nM
30 | CC(C)(CO)[C@@H](O)C(=O)NCCC(=O)C(=O)NCCOc1ccccc1 [Example 42, (R)-2,4-Dihydroxy-3,3-dimethyl-N-[3-oxo-3-(2-phenoxy-ethylcarbamoyl)-propyl]-butyramide] | 340 nM
31 | CC(C)(CO)[C@@H](O)C(=O)NCCC(=O)C(=O)N1CCC(Nc2cccc(S(=O)(=O)C(F)(F)F)c2)CC1 [Example 43, (R)—N-{3,4-Dioxo-4-[4-(3-trifluoromethanesulfonyl-phenylamino)-piperidin-1-yl]-butyl}-2,4-dihydroxy-3,3-dimethyl-butyramide] | 12600 nM
32 | CN(Cc1ccccc1)C(=O)C(=O)CCNC(=O)[C@H](O)C(C)(C)CO [Example 27] | 9730 nM
33 | CC(C)(CO)[C@H](O)C(=O)NCCC(=O)C(=O)NCc1ccccc1 [Example 13, (S)—N-(3-Benzylcarbamoyl-3-oxo-propyl)-2,4-dihydroxy-3,3-dimethyl-butyramide] | 460 nM
